{"source": "patent US11612601B1", "about": "“Targeting epidermal growth factor to treat vascular calcification” (THE FLORIDA INTERNATIONAL UNIVERSITY BOARD OF TRUSTEES, priority 2022, dated 2023)", "key": {"CKD mice [1]": {"tested_on": "CKD mice", "test": "Chronic kidney disease and vascular calcification mouse model (OsteoSense calcium tracer in aorta)", "type": "in vivo", "settings": "for vascular calcification (calcium tracer OsteoSense visualization, aorta): daily oral gavage 10 mg/kg for two weeks, vs CKD vehicle, 10 mg/kg", "text": "The in vivo study was approved by the Institutional Animal Care and Use Committee (IACUC) at Florida International University under protocol AN20-006 and conformed to current NIH guidelines. 8-week-old wild type C57BL/6J mice (n=38, 19 per biological sex) were fed an adenine-supplemented diet (0.2%, TestDiet, Richmond, Ind.) for 6 weeks to induce severe kidney injury. The mice then received a diet containing 1.8% phosphate (TestDiet, Richmond, Ind.) and 0.2% adenine for an additional two weeks to induce medial calcinosis.\nAlong with this calcifying diet, a group of mice (n=19) received daily tyrphostin AG1478 (10 mg/kg mouse, Millipore Sigma, T4182) via oral gavage. The remaining mice (n=19) received vehicle treatment (1% w/v, carboxymethylcellulose sodium salt, Sigma, C5678). For non-diseased controls, a third group of mice (n=12, 6 per biological sex) were fed a regular chow diet and received the vehicle for the final two weeks. During the oral gavage, animals were partially anesthetized using isoflurane (1%, Patterson Veterinary, 07-893-1389, in 2 L.min^−1 oxygen flow). All animals received a tail vein injection with the calcium tracer OsteoSense 680EX (80 nmol/kg mouse, PerkinElmer, NEV10020EX) 48 hours prior to euthanization. At study endpoint, mice were anesthetized with isoflurane (1%, in 2 L.min^−1 oxygen flow) followed by retro-orbital bleeding for blood collection. Mice were then immediately euthanized by laceration of the diaphragm before tissue collection. After resection, the aortas were imaged using a near-infrared scanner (LI-COR Odyssey) to visualize the vascular calcification burden. A custom MATLAB script quantified the total area of the calcium tracer, which was normalized to the total scanned aorta area."}, "CKD mice [2]": {"tested_on": "CKD mice", "test": "Serum EGFR level and serum TNAP activity in CKD mice", "type": "in vivo, mouse", "settings": "10 mg/kg daily, vs CKD", "protocol": "Along with this calcifying diet, a group of mice (n=19) received daily tyrphostin AG1478 (10 mg/kg mouse, Millipore Sigma, T4182) via oral gavage. The remaining mice (n=19) received vehicle treatment (1% w/v, carboxymethylcellulose sodium salt, Sigma, C5678). For non-diseased controls, a third group of mice (n=12, 6 per biological sex) were fed a regular chow diet and received the vehicle for the final two weeks. During the oral gavage, animals were partially anesthetized using isoflurane (1%, Patterson Veterinary, 07-893-1389, in 2 L.min^−1 oxygen flow). […] At study endpoint, mice were anesthetized with isoflurane (1%, in 2 L.min^−1 oxygen flow) followed by retro-orbital bleeding for blood collection. Mice were then immediately euthanized by laceration of the diaphragm before tissue collection. […] For mice serum TNAP activity, the samples were diluted 1:20 and assessment was performed according to the manufacturer's protocol."}, "CKD mice [3]": {"tested_on": "CKD mice", "test": "Femur X-ray CT bone thickness and bone volume fraction in CKD mice", "type": "in vivo, mouse", "experimental": "Femurs were dissected from mice, wrapped in parafilm and imaged directly in a Nikon XT H 225 scanner (macro-CT, Nikon Metrology, Tring, UK). The raw transmission images were reconstructed using commercial image reconstruction software package (CT Pro 3D, Nikon Metrology, Tring, UK), which employs a filtered back-projection algorithm. The scan was performed using 80 kV beam energy, 70 μA beam current, and a power of 5.6 W. A PerkinElmer 1620 flat panel detector was used, with 200 μm pixel size. The resulting effective pixel size was 5 μm. The exposure time per projection was 0.5 s, and a total of 1601 projections were acquired, resulting in a scanning time of approximately 13 minutes per sample. Bone structural parameters, including thickness and volume fraction (the ratio of bone volume (BV) to total volume (TV)), for both cortical and trabecular regions were assessed using a plug-in module, BoneJ, in ImageJ (NIH, USA)."}, "[4]": {"tested_on": "Primary human coronary artery vascular smooth muscle cells", "test": "In vitro calcification of VSMCs, Alizarin Red S staining", "type": "cell-based", "settings": "OS media, 2.5 μM, 28 days", "experimental": "Primary human coronary artery vascular smooth muscle cells, (VSMCs, ATCC, PCS-100-021) were cultured using vascular smooth muscle cell media and growth kit (ATCC, PCS-100-042). VSMCs (passage 4-6) were harvested using 0.05% trypsin-EDTA solution (Caisson Labs, TRL04) and seeded with a density of 26,320 cells.cm^−2 and incubated for 72 hours at 37° C., 5% CO2 with controlled humidity prior to treatment. VSMCs were treated with either control media, consisting of DMEM (HyClone, SH30022.01), 10% v/v bovine calf serum (iron-supplemented, R&D Systems, S11950), and 1% v/v penicillin-streptomycin (Gibco, 15070-063), or with an osteogenic media (OS) optimized to induce calcification. OS media were supplemented with 10 mM β-glycerophosphate (Sigma, 13408-09-8), 0.1 mM L-ascorbic acid (Sigma, 113170-55-1), and 10 nM dexamethasone (Sigma, 50-02-2).\nTo assess the role of EGFR inhibition, tyrphostin AG1478 (Millipore Sigma, T4182) was dissolved in vehicle (DMSO:Methanol, 1:1) and added to OS media to a final concentration of 2.5 μM. An equal volume of vehicle was added to the control and OS groups. […]\nTo quantify the in vitro calcification, ARS stain was extracted using acetic acid (1.67 M, Fisher Chemical, A38S) on a shaker. […] Sample absorbance of 405 nm was measured using a multi-mode reader (BioTek, Synergy HTX)."}}, "data": [{"smiles": "COc1cc2ncnc(Nc3cccc(Cl)c3)c2cc1OC", "note": "[AG1478, tyrphostin AG1478]", "values": [{"measurement": "Quantification of the OsteoSense intensity (vascular calcification)", "setting": "CKD mice [1]; CKD mice, 10 mg/kg daily, two weeks, vs CKD, p≤0.001", "value": "significant reduction"}, {"measurement": "vascular calcification (calcium tracer OsteoSense visualization, aorta)", "setting": "CKD mice [1]; CKD mice", "value": "reduced calcium burden"}, {"measurement": "vascular calcification (calcium tracer OsteoSense visualization, aorta)", "setting": "CKD mice [1]; CKD mice, listed as EGFR inhibitor", "value": "dramatically reduced"}, {"measurement": "survival rate", "setting": "CKD mice [1]; CKD mouse model", "value": 100, "unit": "%"}, {"measurement": "serum TNAP activity", "setting": "CKD mice [2]; p=0.06", "value": "did not significantly reduce"}, {"measurement": "level of serum EGFR", "setting": "CKD mice [2]; p=0.78", "value": "no significant difference"}, {"measurement": "thickness of cortical bone", "setting": "CKD mice [3]; CKD mice treated vs CKD, p=0.004", "value": "increased"}, {"measurement": "thickness of trabecular bone, metaphysical region", "setting": "CKD mice [3]; CKD mice treated vs CKD, p=0.02", "value": "increased"}, {"measurement": "thickness of trabecular bone, epiphyseal region", "setting": "CKD mice [3]; CKD mice treated vs CKD, p=0.04", "value": "increased"}, {"measurement": "bone volume fraction in trabecular bone, metaphysical region", "setting": "CKD mice [3]; compared to CKD animals, p=0.002", "value": "increased"}, {"measurement": "bone volume fraction in trabecular bone, epiphyseal region", "setting": "CKD mice [3]; compared to CKD animals, p=0.009", "value": "increased"}, {"measurement": "bone volume fraction in cortical bone", "setting": "CKD mice [3]; compared to CKD animals, p=0.25", "value": "did not significantly change"}, {"measurement": "in vitro calcification of VSMCs (ARS staining)", "setting": "[4]", "value": "abrogated"}]}]}
